The nature of data set [1]: MTT cytotoxicity assay. Format: cell-based, human. Conditions: human; HL-60 cells, 24 h, 10 mM, MTT; read-out: cell viability. The method, then:
(§1) To verify the cytotoxicity of the acrylonitrile derivatives, the MTT reduction method was performed. Briefly, HL-60 cells were seeded in a flat-bottomed 96-well plate at a density of 10,000 cells per well. […] In a second series of experiments, cells were incubated under the same conditions but for 72 h. Etoposide was used as a positive control. Ten μL of MTT was added at a final concentration of 0.5 mg/mL, incubated at 37 °C for 4 h, and then solubilized with 10% SDS in 0.1 mM HCl and incubated overnight at 37 °C. Finally, a blue-colored compound (formazan) formation was measured at 570 nm in a multiplate reader (StatFax 4200, Awareness Technology, Inc., Palm City, FL, USA). The viability percentage was obtained as follows: Viability % = [treated cells DO × 100]/[DO cells control].
A general note: Tetrazolium assays rely on reduction of a dye to a coloured formazan, in cell work by metabolically active cells.

Data set [2] deals with T1, NOX2 (Homo sapiens, UniProt P14598).
T1 construct: HL-60 cells expressed the components of NOX2, including gp91, p22^phox, p47^phox, and p67^phox; endogenous in cells; whole cells in A1, membrane preparations in A3 and A4
T1 sequence (P14598 1-390): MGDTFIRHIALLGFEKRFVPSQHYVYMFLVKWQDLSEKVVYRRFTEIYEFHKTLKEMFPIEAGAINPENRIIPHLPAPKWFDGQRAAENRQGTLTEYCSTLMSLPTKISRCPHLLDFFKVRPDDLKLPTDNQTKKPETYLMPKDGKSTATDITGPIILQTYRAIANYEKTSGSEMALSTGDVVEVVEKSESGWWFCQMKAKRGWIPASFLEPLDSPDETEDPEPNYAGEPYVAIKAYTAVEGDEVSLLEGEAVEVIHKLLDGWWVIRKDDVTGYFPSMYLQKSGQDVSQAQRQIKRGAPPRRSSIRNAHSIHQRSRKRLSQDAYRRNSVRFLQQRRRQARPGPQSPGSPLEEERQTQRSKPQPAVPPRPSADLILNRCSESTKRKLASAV
Kind of data set: NADPH oxidase (NOX2) inhibition, DCF fluorescence in PMA-activated neutrophil-differentiated HL-60 cells. The format is cell-based. As to conditions: for IC50: neutrophil-differentiated HL-60 cells, PMA 0.8 µM, DCF fluorescence, 0.05 to 50 µM. The method, then: The differentiation of HL-60 cells to neutrophils was performed after reaching a concentration of between 2 × 10^6 and 5 × 10^6 cells/mL in the differentiation medium: RPMI 1640 medium; 10% FBS; 100 IU/mL of penicillin/streptomycin; and 1.3% DMSO for 7 days, replenishing the differentiation medium every 2 days.
The 2′,7′-dichlorofluorescein (DCF) fluorescence analysis was used to determine NADPH oxidase activity in neutrophil-differentiated HL-60 cells. The method, based on a fluorimetric assay, was adapted from Boly et al.. Briefly, 1 × 10^6 neutrophil-differentiated HL-60 cells/mL were incubated for 45 min. at 37 °C in darkness with DCF-DA (1 mg/mL). The cell suspension was then transferred to a 15 mL conical tube and centrifuged at 330× g × 10 min at 37 °C. After the supernatant was removed, the cells were re-suspended in Hanks balanced saline buffer (HBSS, Sigma-Aldrich, St. Louis, MO, USA) and transferred to dark 96-well plates with a flat glass bottom (Thermo Scientific Nunc 96 microwell® black, Optical Botton # 1.5 Cover Glass Base, Thermo Fisher Scientific). Then, 200 μL of cell suspension per well were incubated at 37 °C for 30 min with the indole heteroaryl-acrylonitriles at increasing concentrations (0.05 to 50 μM). […] Finally, PMA (0.8 μM) was added to each well for 10 min. to generate the activation of NOX2. The generation of the DCF fluorescence product was monitored in an automatic microplate reader (FLx800, BioTek Instruments, Winooski, VT, USA) at 1-min intervals at 37 °C for 1 h, using an excitation wavelength of 485 nm and an emission wavelength of 555 nm. The ability to inhibit ROS production by activated neutrophil-differentiated HL-60 cells was compared against the different controls. A control was performed with cells activated by PMA in the presence of DMSO and established as having 100% of the ROS-induced fluorescence. Inhibition control was performed in the presence of VAS2870 (20 µM) and activated by PMA. Another control (NA, not activated) was done with cells in the absence of PMA and the indole heteroaryl-acrylonitriles.
All the experiments were performed in triplicate, using three different cell preparations, and the data were reported as mean ± s.e.m. For the determination of the IC50 of the indole heteroaryl-acrylonitriles, concentration-response curves (0.05 to 50 μM) were constructed. IC50 values were given as the mean ± standard deviation for at least three independent assays. The data were analyzed using one- and two-way ANOVA. A value of p < 0.05 was considered statistically significant. Statistical analyses were performed using the program GraphPad Prism® version 6.00, San Diego, CA, USA.

Data set [3] concerns HL-60 cells. Kind of data set: MTT cytotoxicity assay. Format: cell-based, human. Conditions: 72 h, 0.01 µM to 100 µM, MTT. The method, then:
as §1

A short description of data set [4]: DPPH radical scavenging activity. Format: physicochemical. The method, then:
The newly synthesized compounds were evaluated for 2,2-diphenyl-1-picrylhydrazyl […] free radical scavenging activity. The reduction and stabilization of DPPH by antioxidant compounds lead to discoloration, resulting in a decrease in absorbance at 517 nm, which was expressed as a percentage of the radical solution at a given concentration of discoloration. The heteroarylacrylonitrile derivatives were re-suspended in a minimum of DMSO at a final concentration of 5 mg/mL (stock solution). From these, they were diluted to concentrations of 1000, 500, and 100 μg/mL. These solutions were mixed with a methanol solution of DPPH (20 μg/mL) for 5 min. Each compound was evaluated in triplicate; absorbance at 517 nm in a UNICAM UV/visible spectrophotometer Helios-α (Thermo Electron Corporation, Waltham, MA USA) was measured by subtracting the solvent absorbance and comparing the resulting value with that of a blank sample. The percentage of discoloration was established according to the following formula: % Radical removal or discoloration = (1 − (AM − ABM)/AC) × 100, where AM is the absorbance of the sample compound, ABM is the absorbance of the sample blank, and AC is the absorbance of the control. The degree of discoloration indicates the efficacy of the compounds studied as free radical scavengers; therefore, a percentage of discoloration of 100 indicates the maximum radical scavenging capacity and a value close to 0 indicates a zero radical scavenging capacity. Quercetin was used as a reference compound in a concentration range of 1.25 to 7.5 μg/mL.
A general note: Loss of DPPH colour is used to gauge radical scavenging.

Structures are written as SMILES.

A word on the viability: it is the share of living cells, or the viability signal relative to a control. The term IC50 denotes the point on the concentration scale where inhibition reaches its midpoint. Read a high IC50 as weaker potency. As for `N#C/C(=C\c1ccc(-c2ccc(Cl)cc2)o1)C(=O)c1c[nH]c2ccccc12` [Compound C1], in data set [1], the viability at 24 h, 10 mM worked out at 60%. Also, inhibition in data set [2] was half-maximal at 21.5 ± 0.3 µM (IC50). For the compound `Cc1nn(-c2ccccc2)c(Cl)c1/C=C(\C#N)C(=O)c1c[nH]c2ccccc12` [Compound C2], in data set [2], the IC50 came out at 7.2 ± 0.3 µM. With `N#C/C(=C\c1ccc(-c2ccccc2)cc1)C(=O)c1c[nH]c2ccccc12` [Compound C3], the “cytotoxicity (in words)” value in data set [3] was “non-cytotoxic”. `N#C/C(=C\c1ccc(N2CCOCC2)cc1)C(=O)c1c[nH]c2ccccc12` [Compound C4]: in data set [4], the “antioxidant capacity, DPPH discoloration (in words)” value (from here on “antioxidant capacity”) is given as “showed antioxidant capacity only at very high concentrations”. The viability at 24 h, 10 mM in data set [1] was determined as 60%. In data set [2], half-maximal inhibition (IC50) required 7.1 ± 0.4 µM. `N#C/C(=C\c1cc(-c2ccc(F)cc2)on1)C(=O)c1c[nH]c2ccccc12` [Compound C5] yielded a 50% inhibitory concentration (IC50) in data set [2] of 6.2 ± 0.4 µM. Consider `N#C/C(=C\c1ccc(-c2ccc([N+](=O)[O-])cc2)o1)C(=O)c1c[nH]c2ccccc12` [Compound C7], for which the midpoint of inhibition in data set [2], the IC50, lay at 68.1 ± 1.2 µM. With `CC(C)c1ccc2occ(/C=C(\C#N)C(=O)c3c[nH]c4ccccc34)c(=O)c2c1` [Compound C8], the “antioxidant capacity” value in data set [4] was “showed antioxidant capacity only at very high concentrations”. In addition, the viability at 24 h, 10 mM in data set [1] is 60%. This compound displayed an IC50 in data set [2] of 17.1 ± 0.2 µM. For `Cc1ccc2occ(/C=C(\C#N)C(=O)c3c[nH]c4ccccc34)c(=O)c2c1` [Compound C9], the “antioxidant capacity” value in data set [4] is “showed antioxidant capacity only at very high concentrations”. Also, the “cytotoxicity (in words)” value in data set [3] is on record as “non-cytotoxic”. Besides, the “inhibition of NOX2-derived ROS production (in words)” value in data set [2] (PMA-activated HL-60 cells, 0.05 µM to 50 µM) is recorded as “exhibited concentration-dependent inhibition of NOX2”. This compound showed an IC50 in data set [2] of 4.7 ± 0.3 µM. As for `N#C/C(=C\c1coc2ccccc2c1=O)C(=O)c1c[nH]c2ccccc12` [Compound C10], the viability at 24 h, 10 mM in data set [1] came out at 60%. The same compound showed an IC50 in data set [2] of 9.4 ± 0.3 µM. Turning to `CCc1ccc2occ(/C=C(\C#N)C(=O)c3c[nH]c4ccccc34)c(=O)c2c1` [Compound C11], the IC50 in data set [2] stood at 19.9 ± 0.2 µM. As to `N#C/C(=C\c1c(N)oc2ccccc2c1=O)C(=O)c1c[nH]c2ccccc12` [Compound C12], inhibition in data set [2] was half-maximal at 21.1 ± 0.2 µM (IC50).

In data set [2], `N#C/C(=C\c1cccnc1)C(=O)c1c[nH]c2ccccc12` [Compound C13] yielded an IC50 of 16.3 ± 0.2 µM. `CC(C)(C)OC(=O)N1CCN(c2ccc(/C=C(\C#N)C(=O)c3c[nH]c4ccccc34)cc2)CC1` [Compound C15] returned an IC50 in data set [2] of 30.4 ± 0.3 µM. Consider `N#C/C(=C\c1ccco1)C(=O)c1c[nH]c2ccccc12` [Compound C16], for which, in data set [2], the IC50 came out at 82.7 ± 0.2 µM.

Regarding `CC(=O)OCc1ccc(/C=C(\C#N)C(=O)c2c[nH]c3ccccc23)o1` [Compound C17], the IC50 in data set [2] turned out to be 19.7 ± 0.2 µM. Regarding `N#C/C(=C\c1ncc[nH]1)C(=O)c1c[nH]c2ccccc12` [Compound C18], the IC50 in data set [2] was 51.3 ± 0.2 µM. Still for that read-out and setting: then `Cn1ccnc1/C=C(\C#N)C(=O)c1c[nH]c2ccccc12` [Compound C19], with 69.3 ± 0.2 µM.

For the origin of these results see PMC10376059, “New NADPH Oxidase 2 Inhibitors Display Potent Activity against Oxidative Stress by Targeting p22^phox-p47^phox Interactions” (Antioxidants, 2023).
